SMILES strings stand for the structures.

As usually defined, the melting point is the temperature of the solid-liquid transition. `COc1cc(C(C)C)ccc1C1COc2c(C)c(C)cc(C)c21` (stereo unspecified) showed a melting point of 102 to 103 °C.
Under `O[C@H]1CC[C@H](n2cnc(-c3ccc(F)cc3)c2-c2ccnc(Nc3ccccc3)n2)CC1` stands 204 to 206 °C.
Compound `Cc1cccc(CN(Cc2cccc(C)n2)C(c2ccccn2)c2ccccn2)n1` returned a melting point of 168 °C.
Under `O=C(Cc1c(-c2ccccc2)c2cc(CN3CCN(c4ccccc4)CC3)c(Cl)cc2oc1=O)Nc1ccc(Cl)cc1C(F)(F)F` stands 201 to 203 °C; under `Cn1ncc2c1-c1c(Oc3ccc4c(c3)OCO4)sc(C(=O)NC(C)(C)C)c1CC2`, 171 to 179 °C.
Under `CCC(=O)NCC1CC1c1c(Cl)ccc2nn(C)cc12` (stereo unspecified) stands 152 to 153 °C; under `NC(=O)c1ccc(-c2ccc3nnn(Cc4ccc5ncccc5c4)c3n2)cc1`, 229 to 231 °C; under `COc1ccc(-c2nc(Sc3cccc(F)c3)[nH]c2-c2ccc(OC)cc2)cc1`, 147 to 149 °C.
Under `CC1=NC(=NOC(=O)NC(C)C)SC1(C)C` stands 114 to 116 °C; under `O=C(O)CCCCCNC(=NC(=O)OCc1ccccc1)NC(=O)OCc1ccccc1`, 93 °C; under `COc1ccc(N2CCOCC2)c2sc(-c3nc4ccc(N(C)C)nc4[nH]3)nc12`, 120 to 130 °C.
Compound `Cn1c(=O)n(Cc2ccc(F)cc2)c(=O)c2cc(C#CCc3ccccc3)ccc21` registered a melting point of 160 °C.
With `COc1ccc(N(CCCC(=O)O)C(=O)C(C)N(C(=O)c2cccc(C(F)(F)F)c2)c2ccc(OC)cc2)cc1` (stereo unspecified), the melting point was 119 to 121 °C.
On to `CC(=O)C1=Cc2cc(Br)ccc2OC1`, for which the melting point was 70 °C.
The same measure for `CC(C)C(NC(=O)c1ccncc1)C(=O)NC(Cc1ccccc1)C(O)C(Cc1ccccc1)NC(=O)C(NC(=O)c1ccncc1)C(C)C` (stereo unspecified): 256 to 258 °C; for `COc1ccccc1CC(=N)N1CCC(=O)C(C(c2ccccc2)c2ccccc2)C1` (stereo unspecified): 57 to 58 °C.
The compound `CSc1ccc(OCCO)cc1` yielded a melting point of 55 to 56.5 °C.
Under `O=C(O)c1nc2ccc(NCCCN3CCC(OC(c4ccccc4)c4ccccc4)CC3)nn2n1` stands 135 to 138 °C.
For `Nc1ccc(-c2cc(C(F)(F)F)nc(-c3ccc(C(F)(F)F)cc3)n2)cc1`, the melting point was found to be 162 °C.
`CC(CCc1ccccc1)NCC(O)c1ccc(C(N)=O)s1` (stereo unspecified): the melting point lay in the range of 108 to 116 °C.
The same measure for `CC1(C(=O)Nc2ccc(OCC3CC3)c(Cl)c2)CC1`: 111 to 113 °C; for `CCCCCCCCCCCCCCCCN(C)S(=O)(=O)c1ccc(Cl)c([N+](=O)[O-])c1`: 74 to 75 °C; for `COc1ccccc1Sc1ccc2c(c1)CCC1N(C)C(=O)CCC21C` (single isomer, unassigned; (+)): 166 to 168 °C.
The same measure for `Fc1ccc(Cn2c(NC3CCN(CCc4cnccn4)CC3)nc3ccccc32)cc1`: 165 °C; for `Cc1ccc(/C=C/C(=O)Nc2cccc(NC(=N)c3ccccc3)c2)cc1`: 147 to 149 °C; for `CC1(C)CC(C(O)CNc2nc(Cl)nc(NCC(O)C3CC(C)(C)NC(C)(C)C3)n2)CC(C)(C)N1` (stereo unspecified): 206 to 207 °C.
The same measure for `CCCOc1cc(C(=O)O)ccc1-c1ccc(-c2ccccc2)c(-c2ccc3c(c2)C(C)(C)CCC3(C)C)c1`: 216 to 218 °C; for `Cc1c(C(=O)Nc2ccc(N3CCC(N4CCOCC4)CC3)c(C#N)c2)cnn1-c1ccc(F)c(F)c1`: 243 °C.
`CC(C)c1cccc(C(C)C)c1NC(=O)NCC1(c2ccc3ccccc3c2)CCC1` registered a melting point of 146 to 150 °C.
`COc1ccc2c(c1)C(=O)c1c-2nc2ccccc2c1Cl` showed a melting point of 216 to 218 °C.
Consider `Cc1cc(-c2ncn3c(C(F)(F)F)cc(-c4ccc(C(F)(F)F)cc4)nc23)ccn1`, for which the melting point came to 257 °C.
Under `NS(=O)(=O)c1ccccc1Cn1cncn1` stands 128 to 131 °C.
Under `O=C(O)Cc1c(-c2ccccc2)nn(-c2ccc(Cl)cc2)c1-c1ccccc1` stands 193 to 194 °C; under `CCC1Cc2cc(OCC(=O)O)c(Cl)c(Cl)c2C1O` (stereo unspecified), 121 to 122 °C; under `Nc1nc2ccccc2c2c1nc(CF)n2Cc1cc(-c2ccc(F)cc2)no1`, 192 to 193 °C.
In the case of `CCOC(=O)c1ncn2c1CN(C)C(=O)c1c(F)cccc1-2`, the melting point lay in the range of 196 to 198 °C.
In the case of `COc1cc(Nc2c(C#N)cnc3cc(-c4ccc(CN(CCO)CCO)o4)ccc23)c(Cl)cc1Cl`, the melting point is 155 to 160 °C.
Under `O=C(NCc1cccc([N+](=O)[O-])c1)c1ccccc1` stands 136 to 138 °C.
The same measure for `O=C(O)c1cn(Cc2ccc(Oc3ccccc3)cc2)nc1OCc1ccc(Oc2ccccc2)cc1`: 141 to 142 °C; for `Cc1c[nH]c(=O)n(Cc2ccccc2)c1=O`: 208 to 210 °C.
The same measure for `Cn1cc([N+](=O)[O-])cc1CO`: 89 to 90 °C; for `COc1ccc2c(c1)C(C(=O)N(Cc1ccc(Cl)cc1)c1ccc(C(C)C)cc1)CCC2` (stereo unspecified): 87 to 88 °C; for `CC(C)(C)c1ccc(/C=N/OCCOc2ccc(C(=O)O)c(OC(=O)c3ccc(C(F)(F)F)cc3)c2)cc1`: 146 to 148 °C.
As for `CCCCCCCOC(=O)CON=c1c2nccc3cccc(c32)n2cccc12`, the melting point was 98 °C.
The same measure for `COc1cc(C(C)C)c2c(c1)S(=O)(=O)N(COc1cc(C#N)nn1-c1ccc(Cl)cc1Cl)C2=O`: 183 to 184 °C.
Under `CC(C)[C@H](NC(=O)OCc1csc(N2CCOCC2)n1)C(=O)N[C@@H](Cc1ccccc1)[C@@H](O)C[C@H](Cc1ccccc1)NC(=O)OCc1cncs1` stands 146 to 148 °C; under `CCCCc1nc2ccc(C)c(C(=O)O)c2n1Cc1ccc(-c2ccccc2-c2nnn[nH]2)cc1`, 298 to 299 °C; under `C[C@@H]1C(=O)N(c2ccc(C#N)c(Cl)c2)[C@@H](C)[C@H]1O`, 149 to 151 °C.
Regarding `CCCCNC(=O)Nc1cccc(-c2ccnc3c(C(=O)c4cccs4)cnn23)c1`, the melting point fell in the range of 158 to 160 °C.
Under `COc1ccc2c(Cc3ccc(OC4CCCCC4N(C)C)cc3)c(-c3ccc(OCCN4CCCC4)cc3)sc2c1` (stereo unspecified) stands 58 to 61 °C; under `CC1(C)C=C(NC=NC#N)c2cc(C#N)ccc2O1`, 159 to 161 °C.
Consider `CC1Cc2ccc([Si](C)(C)C)c(S(=O)(=O)NC(C)(C)C)c2S1` (stereo unspecified), for which the melting point was 119 to 124 °C.
Under `CCc1nc2cnc3cc(O)ccc3c2n1CC(C)C` stands greater than 250 °C; under `CN(C)CCCOc1ccc(C(=O)NN)nc1`, 82 to 83 °C; under `CC(c1oc2ccccc2c(=O)c1-c1cccc(F)c1)n1nc(-c2ccc(N)cc2)c2c(N)ncnc21` (stereo unspecified), 91 to 94 °C.
Turning to `Cc1cccc(-c2nc3ccc(OCCCN4CCCC4)cc3n2Cc2ccccc2)c1`, the melting point worked out at 120 °C.
The compound `COc1ccccc1S(=O)(=O)c1ccc2c(c1)[C@@H](N1CCCC1=O)[C@H](O)C(C)(C)O2` (relative stereo) gave a melting point of 196 to 198 °C.
Under `CCOC(Cc1ccc(OCCN2c3ccccc3Sc3ccccc32)cc1)C(=O)O` (stereo unspecified) stands 106 to 113 °C; under `CC(C)(C)OC(=O)NC1CCCCc2cc(OCC3CCCCC3)c(C(=O)O)cc21` (stereo unspecified), 159 to 160 °C; under `CCS(=O)(=O)c1ccc(C(=O)NCc2ccc3c(c2)C(=O)N(C2CCC(=O)NC2=O)C3=O)cc1` (stereo unspecified), 182 to 184 °C.
Under `COC(=O)c1ccccc1-c1ccc(OC)cn1` stands 130 to 132 °C; under `O=[N+]([O-])c1ccc(Oc2c(Cl)cc(C(F)(F)F)cc2Cl)cc1S(=O)(=O)c1cc[nH]n1`, 159 °C; under `O=C(NC1CCOCC1)c1ccc(-c2cc(-c3c(-c4ccccn4)nc4ccccn34)ccn2)cc1`, 179 °C.
The same measure for `Cn1c(=O)n(-c2cc(Cl)ccc2O)c2ccc(F)cc21`: 247 to 250 °C; for `COC(=O)Cc1cn(C2CCCCC2)nc1O`: 135 to 136 °C; for `COc1cc(Oc2cccc(C(F)(F)F)c2)nc(C(=O)NCCSCCF)c1`: 82 to 84 °C.
Take `CCCCCCC(O)CCCCCCCCCCC(=O)NCCCC` (stereo unspecified): the melting point was 100 to 102 °C.
Under `COc1ccc(-c2[nH]c3ccc(Cl)cc3c2-c2ccc(S(C)(=O)=O)cc2)cc1` stands 246 to 248 °C; under `CC(C)(C)NC(=O)c1nn(-c2cc(F)cc(F)c2)c2c1C1CCC2C1` (stereo unspecified), 103 to 107 °C; under `COc1ccc2c(c1OC)C(=O)O[C@@H]2[C@H]1c2c(c(N=[N+]=[N-])c3c(c2OC)OCO3)CCN1C`, 177 to 178 °C.
The same measure for `CCOC(=O)N1CCN(c2ncnc3c2cnn3Cc2ccncc2)CC1`: 123 to 124 °C; for `OCC1OC(n2cnc3c(NC4CCCCC4O)ncnc32)C(O)C1O` (stereo unspecified): 210 to 211 °C; for `CSC(Nc1cccc(CNC(=O)OC(C)(C)C)c1)=C(C#N)C#N`: 150 to 151 °C.
Under `O=C(O)c1cc(F)c(N2CCNCC2)nc1Nc1ccc(F)cc1F` stands 279 to 281 °C; under `CN(c1ccc(-c2ccc(C(=N)N)cc2)nn1)[C@H]1CC[C@H](C(=O)O)CC1`, 308 to 310 °C; under `O=C1Nc2ccccc2N(C(=O)N2CCCC(CCNCC3CCCC3)C2)c2ncccc21` (stereo unspecified), 148 to 150 °C.
For the compound `CCCCCN(CCCOC)C(=O)C(CCC(=O)O)CS(=O)(=O)c1ccc2ccccc2c1` (stereo unspecified), the melting point fell in the range of 79 to 82 °C.
Under `CCOC(=O)c1c(-c2ccccc2Cl)c2cc(Cl)ccc2n(C)c1=O` stands 139 to 140 °C; under `Cc1cc(C)cc(-c2[nH]c3ccc(C(=O)O)cc3c2CCN(CCCCc2ccc(NS(C)(=O)=O)cc2)C(=O)OCc2ccccc2)c1`, 212 to 213 °C.
As for `CN1CCN(c2cc(NC(=O)OC(C)(C)C)c([N+](=O)[O-])cc2C#Cc2ccccc2)CC1`, the melting point amounted to 170 °C.
Under `COc1cc(C)c(C(=O)c2c(O)ccc(Br)c2C)c(OC)c1OC` stands 119 to 120 °C.

These data come from a melting point compilation (Tetko et al.; mined from patent text by program, amines drawn as free bases though some values may be those of a salt).
